Laboratory results as given in publication PMC5869712 (Scientific Reports, 2018).

Assays:
[1] = test system: panel of 81 representative kinases; conditions: 1 μM
MKK7β = target: T1, MKK7β (Homo sapiens, UniProt O14733); test: Eurofins Kinase Profiler panel; format: biochemical
T1 construct: Eurofins Pharma Discovery Services UK Limited (Kinase Profiler service)

KDR = target: T2, KDR (Homo sapiens, UniProt P35968); test: Eurofins Kinase Profiler panel; format: biochemical; conditions: read-out: % inhibition (1μM), DMSO control=100%, lower=stronger
T2 construct: purchased Eurofins KinaseProfiler (Eurofins Pharma Discovery Services UK, Dundee); JAK3 also ChemPartner
T2 sequence (P35968 20-1356): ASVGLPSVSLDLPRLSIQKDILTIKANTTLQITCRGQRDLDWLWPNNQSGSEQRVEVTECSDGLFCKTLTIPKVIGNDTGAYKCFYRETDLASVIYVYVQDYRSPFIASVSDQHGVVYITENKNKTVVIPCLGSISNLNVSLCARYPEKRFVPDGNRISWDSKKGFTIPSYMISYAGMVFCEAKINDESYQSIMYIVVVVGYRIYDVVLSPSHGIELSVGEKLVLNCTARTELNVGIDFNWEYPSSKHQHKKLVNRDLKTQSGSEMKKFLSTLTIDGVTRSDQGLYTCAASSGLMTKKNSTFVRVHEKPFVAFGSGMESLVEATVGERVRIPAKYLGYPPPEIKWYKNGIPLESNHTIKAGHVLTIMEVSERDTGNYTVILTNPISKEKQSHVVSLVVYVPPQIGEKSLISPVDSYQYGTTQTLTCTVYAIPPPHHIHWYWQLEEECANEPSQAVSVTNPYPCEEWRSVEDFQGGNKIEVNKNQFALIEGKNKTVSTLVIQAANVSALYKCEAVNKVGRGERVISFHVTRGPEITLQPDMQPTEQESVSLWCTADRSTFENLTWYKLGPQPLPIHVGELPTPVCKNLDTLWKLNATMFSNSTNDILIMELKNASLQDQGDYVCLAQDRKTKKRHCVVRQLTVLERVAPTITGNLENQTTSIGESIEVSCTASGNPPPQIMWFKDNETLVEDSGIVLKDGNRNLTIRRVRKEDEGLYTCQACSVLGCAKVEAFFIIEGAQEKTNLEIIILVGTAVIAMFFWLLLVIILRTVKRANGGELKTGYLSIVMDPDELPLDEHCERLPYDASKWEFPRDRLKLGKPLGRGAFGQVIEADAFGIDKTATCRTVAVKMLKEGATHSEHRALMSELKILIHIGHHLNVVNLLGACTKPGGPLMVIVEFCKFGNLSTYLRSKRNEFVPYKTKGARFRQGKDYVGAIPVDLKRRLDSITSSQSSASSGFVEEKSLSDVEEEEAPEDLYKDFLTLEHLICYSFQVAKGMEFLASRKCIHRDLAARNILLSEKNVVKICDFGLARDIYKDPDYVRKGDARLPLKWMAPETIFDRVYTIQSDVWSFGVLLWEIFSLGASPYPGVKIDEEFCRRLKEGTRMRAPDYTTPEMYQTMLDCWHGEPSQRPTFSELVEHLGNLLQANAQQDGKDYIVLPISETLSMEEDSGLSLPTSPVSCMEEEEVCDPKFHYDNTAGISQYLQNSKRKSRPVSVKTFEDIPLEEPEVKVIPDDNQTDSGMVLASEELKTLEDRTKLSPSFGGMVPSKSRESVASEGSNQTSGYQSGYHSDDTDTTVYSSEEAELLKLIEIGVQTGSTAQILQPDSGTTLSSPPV

[2] = test system: other kinases of the conserved cysteine panel (BMX, BTK, ITK, TXK, TEC, BLK, EGFR, ERBB4, ERBB2); test: Cys-containing kinase family panel, kinases other than JAK3 taken together; format: biochemical; conditions: 1 µM
Excerpt: The assay protocol guides are commercially available from ChemPartner.

[3] = test system: EPO-induced JAK/STAT5 phosphorylation in HEL cells (JAK2); test: STAT5 phosphorylation induced by EPO in HEL cells, Western blot
SD rats = test: Acute toxicity in SD rats, oral; conditions: SD rats; oral 0.4 g/kg to 2.0 g/kg
[4] = Acute toxicity in SD rats, oral; conditions: Sprague Dawley, rat, in vivo, po
JAK3 (Cys909) = JAK3 (Cys909) (Homo sapiens, UniProt P52333); test: LC-MS/MS mapping of covalent modification; format: binding; conditions: LC-MS/MS after incubation of JAK3 with compound
JAK3 (Cys909), sequence (P52333 whole entry): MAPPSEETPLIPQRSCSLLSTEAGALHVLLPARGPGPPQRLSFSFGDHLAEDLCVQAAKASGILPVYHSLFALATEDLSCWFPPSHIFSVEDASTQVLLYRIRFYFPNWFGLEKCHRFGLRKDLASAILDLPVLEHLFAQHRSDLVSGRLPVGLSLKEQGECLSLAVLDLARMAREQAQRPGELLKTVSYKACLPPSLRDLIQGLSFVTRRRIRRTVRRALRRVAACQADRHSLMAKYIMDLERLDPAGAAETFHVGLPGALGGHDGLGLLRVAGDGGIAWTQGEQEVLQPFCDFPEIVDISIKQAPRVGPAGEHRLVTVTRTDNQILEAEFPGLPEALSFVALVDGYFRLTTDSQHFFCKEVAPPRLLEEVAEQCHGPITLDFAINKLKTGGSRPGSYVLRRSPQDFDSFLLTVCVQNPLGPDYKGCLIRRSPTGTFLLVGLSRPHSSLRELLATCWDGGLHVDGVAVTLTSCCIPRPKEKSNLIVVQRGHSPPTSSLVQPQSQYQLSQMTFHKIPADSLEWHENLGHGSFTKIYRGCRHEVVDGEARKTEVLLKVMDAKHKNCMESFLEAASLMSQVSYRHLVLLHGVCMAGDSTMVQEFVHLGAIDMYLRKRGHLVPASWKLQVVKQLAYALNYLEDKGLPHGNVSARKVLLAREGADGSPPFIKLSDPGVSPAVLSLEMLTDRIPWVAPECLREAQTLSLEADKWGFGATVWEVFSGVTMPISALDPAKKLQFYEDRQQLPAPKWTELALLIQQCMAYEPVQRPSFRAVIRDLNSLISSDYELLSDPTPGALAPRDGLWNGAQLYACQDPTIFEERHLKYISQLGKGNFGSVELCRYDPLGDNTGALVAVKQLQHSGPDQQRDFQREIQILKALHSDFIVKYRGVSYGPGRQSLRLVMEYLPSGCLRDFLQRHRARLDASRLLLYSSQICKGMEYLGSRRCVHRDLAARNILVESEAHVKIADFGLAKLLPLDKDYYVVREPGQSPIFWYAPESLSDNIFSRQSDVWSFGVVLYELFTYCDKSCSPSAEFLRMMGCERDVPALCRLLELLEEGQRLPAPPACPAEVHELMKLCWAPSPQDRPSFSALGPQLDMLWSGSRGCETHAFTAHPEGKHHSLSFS
Experimental: […]. Then, trypsin was added at a 1:50 trypsin-to-protein mass ratio for the first digestion overnight and a 1:100 trypsin-to-protein mass ratio for a second 4-h digestion. The digested peptides were dried with a SpeedVac (Thermo) for LC-MS/MS analysis.
Peptides were dissolved in solvent A (0.1% FA in 2% ACN) and directly loaded onto a reversed-phase pre-column (Acclaim PepMap 100, Thermo Scientific). […] The resulting peptides were analysed by Q Exactive^TM Plus hybrid Quadrupole-Orbitrap Mass Spectrometer (ThermoFisher Scientific).
The peptides were subjected to NSI source followed by tandem mass spectrometry (MS/MS) in Q Exactive^TM Plus (Thermo) coupled online to the UPLC. Intact peptides were detected in the Orbitrap at a resolution of 70,000. Peptides were selected for MS/MS using 30% NCE; ion fragments were detected in the Orbitrap at a resolution of 17,500. A data-dependent procedure that alternated between one MS scan followed by […] was applied for the top 20 precursor ions above a threshold ion count of 5000 in the MS survey scan with 5.0 s dynamic exclusion. The electrospray voltage applied was 2.0 kV. Automatic gain control (AGC) was used to prevent overfilling of the ion trap; 5 E4 ions were accumulated for generation of MS/MS spectra. For MS scans, the m/z scan range was 350 to 1800.

Lck = target: T3, Lck (Homo sapiens, UniProt P06239); test: Eurofins Kinase Profiler panel; format: biochemical; conditions: read-out: % inhibition (1μM), DMSO control=100%, lower=stronger
T3 construct: purchased Eurofins KinaseProfiler (Eurofins Pharma Discovery Services UK, Dundee); JAK3 also ChemPartner
T3 sequence (P06239 whole entry): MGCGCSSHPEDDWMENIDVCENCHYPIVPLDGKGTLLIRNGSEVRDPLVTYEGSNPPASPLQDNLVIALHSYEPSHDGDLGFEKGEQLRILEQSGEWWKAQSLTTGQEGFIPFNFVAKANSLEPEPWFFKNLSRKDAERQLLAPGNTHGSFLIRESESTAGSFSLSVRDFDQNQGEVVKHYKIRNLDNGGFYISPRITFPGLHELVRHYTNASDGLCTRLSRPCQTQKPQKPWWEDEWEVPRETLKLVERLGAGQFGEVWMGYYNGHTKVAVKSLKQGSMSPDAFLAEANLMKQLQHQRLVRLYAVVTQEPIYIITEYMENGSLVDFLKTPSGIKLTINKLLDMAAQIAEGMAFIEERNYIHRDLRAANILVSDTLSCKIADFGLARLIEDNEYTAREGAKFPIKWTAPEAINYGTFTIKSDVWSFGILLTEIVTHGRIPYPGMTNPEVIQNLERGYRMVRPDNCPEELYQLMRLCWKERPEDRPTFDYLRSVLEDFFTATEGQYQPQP

ERBB4 = target: T4, ERBB4 (Homo sapiens, UniProt Q15303); test: Cys-containing kinase family panel (EurofinsCerep); format: biochemical
T4 construct: EurofinsCerep (contract assay service)

[5] = test system: IFN-α2b-induced JAK/STAT1 phosphorylation in U2OS cells (JAK1); test: STAT1 phosphorylation induced by IFN-α2b in U2OS cells, Western blot
IKKα = target: T5, IKKα (Homo sapiens, UniProt O15111); test: Eurofins Kinase Profiler panel; format: biochemical; conditions: read-out: % inhibition (1μM), DMSO control=100%, lower=stronger
T5 construct: purchased Eurofins KinaseProfiler (Eurofins Pharma Discovery Services UK, Dundee); JAK3 also ChemPartner
T5 sequence (O15111 whole entry): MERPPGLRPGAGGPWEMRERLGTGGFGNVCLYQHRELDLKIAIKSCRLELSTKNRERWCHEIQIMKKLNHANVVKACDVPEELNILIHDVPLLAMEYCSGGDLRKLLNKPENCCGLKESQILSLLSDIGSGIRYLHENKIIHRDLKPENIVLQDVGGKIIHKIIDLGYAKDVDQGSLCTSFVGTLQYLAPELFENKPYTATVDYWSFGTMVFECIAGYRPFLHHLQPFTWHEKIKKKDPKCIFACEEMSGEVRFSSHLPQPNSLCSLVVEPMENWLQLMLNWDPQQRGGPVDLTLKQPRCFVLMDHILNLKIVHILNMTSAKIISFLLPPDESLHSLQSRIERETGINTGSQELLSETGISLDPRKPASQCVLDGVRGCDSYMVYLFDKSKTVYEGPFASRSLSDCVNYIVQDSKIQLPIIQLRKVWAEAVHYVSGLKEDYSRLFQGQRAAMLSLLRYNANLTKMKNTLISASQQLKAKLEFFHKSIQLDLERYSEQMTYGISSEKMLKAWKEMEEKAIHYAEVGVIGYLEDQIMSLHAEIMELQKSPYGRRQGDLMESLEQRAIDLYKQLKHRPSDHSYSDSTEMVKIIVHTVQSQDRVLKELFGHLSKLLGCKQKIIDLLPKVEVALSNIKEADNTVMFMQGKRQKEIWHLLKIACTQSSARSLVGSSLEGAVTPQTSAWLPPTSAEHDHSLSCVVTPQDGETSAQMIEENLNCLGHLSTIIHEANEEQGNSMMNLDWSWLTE

ITK = target: T6, ITK (Homo sapiens, UniProt Q08881); test: Cys-containing kinase family panel (EurofinsCerep); format: biochemical
T6 construct: EurofinsCerep (contract assay service)
T6 sequence (Q08881 whole entry): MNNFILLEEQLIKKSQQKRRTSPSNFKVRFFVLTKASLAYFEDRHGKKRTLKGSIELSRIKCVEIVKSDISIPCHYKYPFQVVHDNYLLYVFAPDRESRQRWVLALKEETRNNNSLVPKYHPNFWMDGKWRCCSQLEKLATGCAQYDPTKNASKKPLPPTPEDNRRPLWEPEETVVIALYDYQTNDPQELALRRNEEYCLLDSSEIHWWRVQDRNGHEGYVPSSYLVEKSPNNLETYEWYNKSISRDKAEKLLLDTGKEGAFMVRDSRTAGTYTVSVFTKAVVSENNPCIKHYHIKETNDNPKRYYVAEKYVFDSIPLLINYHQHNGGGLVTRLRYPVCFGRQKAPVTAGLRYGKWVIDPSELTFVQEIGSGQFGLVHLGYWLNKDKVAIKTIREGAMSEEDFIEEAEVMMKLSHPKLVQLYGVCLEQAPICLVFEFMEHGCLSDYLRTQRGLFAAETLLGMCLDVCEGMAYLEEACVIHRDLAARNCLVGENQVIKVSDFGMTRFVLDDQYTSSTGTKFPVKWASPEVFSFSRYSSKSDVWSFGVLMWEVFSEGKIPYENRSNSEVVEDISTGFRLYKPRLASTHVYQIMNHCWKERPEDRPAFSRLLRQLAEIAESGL

T1 sequence (O14733 whole entry): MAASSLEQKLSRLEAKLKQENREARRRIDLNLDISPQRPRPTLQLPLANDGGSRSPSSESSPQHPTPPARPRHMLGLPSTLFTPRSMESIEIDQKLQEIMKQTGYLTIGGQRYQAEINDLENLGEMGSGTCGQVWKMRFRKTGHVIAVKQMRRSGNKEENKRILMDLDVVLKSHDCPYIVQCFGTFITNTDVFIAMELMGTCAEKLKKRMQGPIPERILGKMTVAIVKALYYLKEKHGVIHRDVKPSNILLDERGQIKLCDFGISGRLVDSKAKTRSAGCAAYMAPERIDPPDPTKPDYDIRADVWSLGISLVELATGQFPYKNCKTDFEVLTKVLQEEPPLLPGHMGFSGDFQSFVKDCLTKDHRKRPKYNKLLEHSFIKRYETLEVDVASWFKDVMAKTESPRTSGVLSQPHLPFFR

SMILES: C=CC(=O)N[C@@H]1CCCN(c2ncnc3[nH]ccc23)C1 [RB1]
- selectivity score S(1) ([1]; kinases with ctrl% < 1% / kinases tested): 0.012
- selectivity score S(10) ([1]; kinases with ctrl% < 10% / kinases tested): 0.012
- selectivity score S(35) ([1]; kinases with ctrl% < 35% / kinases tested): 0.086
- IC50 (MKK7β; estimated): > 0.8 µM
- activity at 1 µM (MKK7β; read-out: % inhibition (1μM), 1 µM, DMSO control=100%, lower=stronger): 20%
- activity at 1 µM (KDR): 96%
- inhibition of other kinases of the conserved cysteine panel [2]: less than 15%
- Selectivity JAK2/JAK3 ([3]; EPO, pSTAT5): > 1000
- IC50 ([3]; Homo sapiens): > 50 µM
- adverse effects on body weight, behaviour or appetite (SD rats): no observable adverse effects
- LD50 [4]: > 2000 mg/kg
- covalent modification of JAK3 (Cys909-containing peptide) (JAK3 (Cys909)): covalently modify JAK3 in an apparently irreversible manner
- activity at 1 µM (Lck): 80%
- inhibition at 1 µM (ERBB4): -3.5%
- IC50 ([5]; Homo sapiens, read-out: IC50, STAT and JAK phosphorylation): > 50 µM
- Selectivity JAK1/JAK3 ([5]; IFN-α2B, pSTAT1): > 1000
- activity at 1 µM (IKKα): 97%
- inhibition at 1 µM (ITK): -5.9%
